Our source for the inhibition values is patent US20090054629A1, “Inhibitors of Transthyretin Amyloid Fibril Formation” (THE SCRIPPS RESEARCH INSTITUTE, priority 2005, published 2009).

Each structure is given as a SMILES string.

This test has as its target T1, WT-TTR (Homo sapiens, UniProt P02766).
T1 construct: TTR is a 127-residue β-sheet rich homotetramer; made in house; host or cells: Escherichia coli
Briefly: Acid-mediated (pH 4.4) TTR fibril formation assay (turbidity). In kind it is biochemical. Conditions: inhibitor 7.2 μM, tetrameric TTR 3.6 μM, pH 4.4, 72 h. How it is done: The inhibitory activity of the oxime ethers (7.2 μM) against acid-mediated (pH 4.4) TTR (3.6 μM) amyloid formation is summarized in FIG. 10.
Wild type TTR was purified from an Escherichia coli expression system as described previously (Lashuel, H. A.; et al. Biochemistry 1999, 38, 13560-13573). Disposable cuvettes (Fisher #14 385 938) were charged with 495 μL of a 0.4 mg/mL stock of TTR (7.2 μM) in 10 mM phosphate (pH 7.2), 100 mM KCl, 1 mM EDTA, and 0.2% NaN3. 5 μL of the inhibitors in DMSO (1.44 mM) were added to the TTR solutions and the samples were incubated for 30 min at 37° C. The pH was then lowered to 4.4 by addition of 0.5 mL of 200 mM acetate buffer (pH 4.2, 100 mM KCI, 1 mM EDTA, 0.2% NaN3) to each cuvette. The cuvettes were left undisturbed for 72 h at 37° C., then vortexed to evenly distribute any precipitate throughout the sample. The turbidity was measured on a Hewlett Packard model 8453 UV-Vis Spectrophotometer at 350 and 400, or 500 nm. All samples were performed in duplicate or triplicate and results reported are representative examples of at least three analyses.
FIG. 4 is a table showing the activities of the 96 bisarylhydrazones that were tested for inhibition of fibril formation. Bisarylhydrazone activity (7.2 μM) against WT-TTR (3.6 μM) amyloid fibril formation at pH 4.4 (72 h). […]

`Oc1cc(Cl)cc(Cl)c1` [3,5-Dichlorophenol]: the inhibition at 7.2 µM worked out at 86%.

By inhibition is commonly meant the change of the read-out against control, counted positive when it falls. Read a high inhibition as a strong effect.
